Test results as given in US10543189B2, “2-acetylnaphtho[2,3-b]furan -4,9-dione for use on treating cancer” (Boston Biomedical, Inc., priority 2013, dated 2020).
Where “and” joins values, the source holds several entries; their conditions need not be identical. Equal values may be shown once.

Assays:
[1] = Phase 1 extension study of higher strength capsule (DP2A): adverse events; assay type: in vivo; conditions: for Abdominal cramps/pain, Grade 1 or 2, # Subjects / Abdominal cramps/pain, Grade 1 or 2, % / Abdominal cramps/pain, Grade 3, # Subjects / Abdominal cramps/pain, Grade 3, % / Anorexia, Grade 1 or 2, # Subjects / Anorexia, Grade 1 or 2, % / Anorexia, Grade 3, # Subjects / Anorexia, Grade 3, % / Bloated abdomen, Grade 1 or 2, # Subjects / Bloated abdomen, Grade 1 or 2, % / Bloated abdomen, Grade 3, # Subjects / Bloated abdomen, Grade 3, % / Dehydration, Grade 1 or 2, # Subjects / Dehydration, Grade 1 or 2, % / Dehydration, Grade 3, # Subjects / Dehydration, Grade 3, % / Depression, Grade 1 or 2, # Subjects / Depression, Grade 1 or 2, % / Depression, Grade 3, # Subjects / Depression, Grade 3, % / Diarrhea, Grade 1 or 2, # Subjects / Diarrhea, Grade 1 or 2, % / Diarrhea, Grade 3, # Subjects / Diarrhea, Grade 3, % / Dysgusia, Grade 1 or 2, # Subjects / Dysgusia, Grade 1 or 2, % / Dysgusia, Grade 3, # Subjects / Dysgusia, Grade 3, % / Fatigue/weakness, Grade 1 or 2, # Subjects / Fatigue/weakness, Grade 1 or 2, % / Fatigue/weakness, Grade 3, # Subjects / Fatigue/weakness, Grade 3, % / Flatulence, Grade 1 or 2, # Subjects / Flatulence, Grade 1 or 2, % / Flatulence, Grade 3, # Subjects / Flatulence, Grade 3, % / Nausea, Grade 1 or 2, # Subjects / Nausea, Grade 1 or 2, % / Nausea, Grade 3, # Subjects / Nausea, Grade 3, % / Rectal/Anal Burning, Grade 1 or 2, # Subjects / Rectal/Anal Burning, Grade 1 or 2, % / Rectal/Anal Burning, Grade 3, # Subjects / Rectal/Anal Burning, Grade 3, % / Reflux (also heartburn), Grade 1 or 2, # Subjects / Reflux (also heartburn), Grade 1 or 2, % / Reflux (also heartburn), Grade 3, # Subjects / Reflux (also heartburn), Grade 3, % / Urine Color Change, Grade 1 or 2, # Subjects / Urine Color Change, Grade 1 or 2, % / Urine Color Change, Grade 3, # Subjects / Urine Color Change, Grade 3, % / Vomiting, Grade 1 or 2, # Subjects / Vomiting, Grade 1 or 2, % / Vomiting, Grade 3, # Subjects / Vomiting, Grade 3, % / Weight loss, Grade 1 or 2, # Subjects / Weight loss, Grade 1 or 2, % / Weight loss, Grade 3, # Subjects / Weight loss, Grade 3, % / Xerostomia, Grade 1 or 2, # Subjects / Xerostomia, Grade 1 or 2, % / Xerostomia, Grade 3, # Subjects / Xerostomia, Grade 3, % / hypophosphatemia, Grade 1 or 2, # Subjects / hypophosphatemia, Grade 1 or 2, % / hypophosphatemia, Grade 3, # Subjects / hypophosphatemia, Grade 3, %: AE possibly related to BBI608
Excerpt: However, with the higher strength capsules, we observed worsening gastrointestinal adverse effects including nausea, vomiting, and diarrhea in patients.
Additional studies were run using an oral formulation of the Compound of the Invention, specifically a higher strength capsule formulation (DP2A). As described herein, the Compound of the Invention blocks cancer stem cell (CSC) self-renewal and induces cell death in CSC as well as non-stem cancer cells by inhibiting Stat3, β-catenin, and Nanog pathways, and has shown potent anti-tumor and anti-metastatic activities pre-clinically. […] The studies described herein were designed as a phase 1 extension study to evaluate a formulation designed for pivotal trials to determine pharmacokinetics (PK) in patients with advanced cancer.
On Day 1, patients received a single 500 mg dose of an oral administration formulation of the Compound of the Invention (DP1). On Day 4 and Day 8, a higher strength capsule designed for pivotal trials (DP2A) was given with fasting then fed conditions. DP2A was then administered daily until disease progression or unacceptable toxicity. Endpoints were safety, PK and preliminary anticancer activity.

[2] = system: solid tumor that is metastatic, unresectable, or recurrent; test: Phase I dose escalation trial: preliminary antitumor activity; assay type: in vivo, human
Experimental: Each cycle consists of twice-daily oral administration of the compound for 4 weeks. Cycles were repeated every 4 weeks (28 days) until progression of disease, unacceptable toxicity, or another discontinuation criterion is met. The dose escalation trial was conducted as open label and multicenter trial. A modified Simon accelerated titration scheme was used for dose escalation.
The primary objective of the trial was to determine the safety, tolerability, and recommended phase II dose (RP2D). The secondary objectives of the trial were to determine the pharmacokinetic profile of the compound, pharmacodynamics of the compound, and preliminary antitumor activity of the compound.
The inclusion criteria included histologically or cytologically confirmed solid tumor that is metastatic, unresectable, or recurrent; >18 years of age; Measurable disease by RECIST; and Kamofsky ≥70%. The exclusion criteria included chemotherapy, radiotherapy, immunotherapy or investigational agent within 4 weeks of first dose; surgery within 4 weeks of first dose; and known brain metastases.

[3] = Total Daily Dose 20 mg, Colon adencarcinoma
[4] = Total Daily Dose 400 mg, Colon adenocarcinoma
[5] = Total Daily Dose 400 mg, Ovarian carcinoma
[6] = Total Daily Dose 500 mg, Breast carcinoma (triple negative)

## CC(=O)c1cc2c(o1)C(=O)c1ccccc1C2=O [Compound 1, 2-acetylnaphtho[2,3-b]furan-4,9-dione]
[1]; Patient 0053, at 500 mg bid q4h (gastrointestinal issues)
  AE summary: No significant gastrointestinal
[1]; Patient 0054, at 500 mg bid q4h (gastrointestinal issues)
  AE summary: No significant gastrointestinal
[1]; Patient 0061, fatigue, cramping, diarrhea, and nausea starting at 500 mg bid q4h and persisting at 375 mg/250 mg/250 mg q4h
  AE summary: Intolerable grade 2 fatigue,
[1]; q 4 h dosing (N = 17)
  Abdominal cramps/pain, Grade 1 or 2, # Subjects: 13
  Abdominal cramps/pain, Grade 1 or 2, %: 76.5%
  Abdominal cramps/pain, Grade 3, # Subjects: 1
  Abdominal cramps/pain, Grade 3, %: 5.9%
  Anorexia, Grade 1 or 2, # Subjects: 10
  Anorexia, Grade 1 or 2, %: 58.8%
  Anorexia, Grade 3, # Subjects: 3
  Anorexia, Grade 3, %: 17.6%
  Bloated abdomen, Grade 1 or 2, # Subjects: 4
  Bloated abdomen, Grade 1 or 2, %: 23.5%
  Bloated abdomen, Grade 3, # Subjects: 0
  Bloated abdomen, Grade 3, %: 0.0%
  Dehydration, Grade 1 or 2, # Subjects: 1
  Dehydration, Grade 1 or 2, %: 5.9%
  Dehydration, Grade 3, # Subjects: 0
  Dehydration, Grade 3, %: 0.0%
  Depression, Grade 1 or 2, # Subjects: 0
  Depression, Grade 1 or 2, %: 0.0%
  Depression, Grade 3, # Subjects: 0
  Depression, Grade 3, %: 0.0%
  Diarrhea, Grade 1 or 2, # Subjects: 14
  Diarrhea, Grade 1 or 2, %: 82.4%
  Diarrhea, Grade 3, # Subjects: 4
  Diarrhea, Grade 3, %: 23.5%
  Dysgusia, Grade 1 or 2, # Subjects: 1
  Dysgusia, Grade 1 or 2, %: 5.9%
  Dysgusia, Grade 3, # Subjects: 0
  Dysgusia, Grade 3, %: 0.0%
  Fatigue/weakness, Grade 1 or 2, # Subjects: 10
  Fatigue/weakness, Grade 1 or 2, %: 58.8%
  Fatigue/weakness, Grade 3, # Subjects: 3
  Fatigue/weakness, Grade 3, %: 17.6%
  Flatulence, Grade 1 or 2, # Subjects: 2
  Flatulence, Grade 1 or 2, %: 11.8%
  Flatulence, Grade 3, # Subjects: 0
  Flatulence, Grade 3, %: 0.0%
  Nausea, Grade 1 or 2, # Subjects: 8
  Nausea, Grade 1 or 2, %: 47.1%
  Nausea, Grade 3, # Subjects: 1
  Nausea, Grade 3, %: 5.9%
  Rectal/Anal Burning, Grade 1 or 2, # Subjects: 3
  Rectal/Anal Burning, Grade 1 or 2, %: 17.6%
  Rectal/Anal Burning, Grade 3, # Subjects: 0
  Rectal/Anal Burning, Grade 3, %: 0.0%
  Reflux (also heartburn), Grade 1 or 2, # Subjects: 1
  Reflux (also heartburn), Grade 1 or 2, %: 5.9%
  Reflux (also heartburn), Grade 3, # Subjects: 0
  Reflux (also heartburn), Grade 3, %: 0.0%
  Urine Color Change, Grade 1 or 2, # Subjects: 2
  Urine Color Change, Grade 1 or 2, %: 11.8%
  Urine Color Change, Grade 3, # Subjects: 0
  Urine Color Change, Grade 3, %: 0.0%
  Vomiting, Grade 1 or 2, # Subjects: 7
  Vomiting, Grade 1 or 2, %: 41.2%
  Vomiting, Grade 3, # Subjects: 0
  Vomiting, Grade 3, %: 0.0%
  Weight loss, Grade 1 or 2, # Subjects: 8
  Weight loss, Grade 1 or 2, %: 47.1%
  Weight loss, Grade 3, # Subjects: 0
  Weight loss, Grade 3, %: 0.0%
  Xerostomia, Grade 1 or 2, # Subjects: 4
  Xerostomia, Grade 1 or 2, %: 23.5%
  Xerostomia, Grade 3, # Subjects: 0
  Xerostomia, Grade 3, %: 0.0%
  hypophosphatemia, Grade 1 or 2, # Subjects: 1
  hypophosphatemia, Grade 1 or 2, %: 5.9%
  hypophosphatemia, Grade 3, # Subjects: 1
  hypophosphatemia, Grade 3, %: 5.9%
[1]; q 12 h dosing (N = 11)
  Abdominal cramps/pain, Grade 1 or 2, # Subjects: 5
  Abdominal cramps/pain, Grade 1 or 2, %: 45.5%
  Abdominal cramps/pain, Grade 3, # Subjects: 0
  Abdominal cramps/pain, Grade 3, %: 0.0%
  Anorexia, Grade 1 or 2, # Subjects: 1
  Anorexia, Grade 1 or 2, %: 9.1%
  Anorexia, Grade 3, # Subjects: 0
  Anorexia, Grade 3, %: 0.0%
  Bloated abdomen, Grade 1 or 2, # Subjects: 0
  Bloated abdomen, Grade 1 or 2, %: 0.0%
  Bloated abdomen, Grade 3, # Subjects: 0
  Bloated abdomen, Grade 3, %: 0.0%
  Dehydration, Grade 1 or 2, # Subjects: 0
  Dehydration, Grade 1 or 2, %: 0.0%
  Dehydration, Grade 3, # Subjects: 0
  Dehydration, Grade 3, %: 0.0%
  Depression, Grade 1 or 2, # Subjects: 1
  Depression, Grade 1 or 2, %: 9.1%
  Depression, Grade 3, # Subjects: 0
  Depression, Grade 3, %: 0.0%
  Diarrhea, Grade 1 or 2, # Subjects: 7
  Diarrhea, Grade 1 or 2, %: 63.6%
  Diarrhea, Grade 3, # Subjects: 0
  Diarrhea, Grade 3, %: 0.0%
  Dysgusia, Grade 1 or 2, # Subjects: 0
  Dysgusia, Grade 1 or 2, %: 0.0%
  Dysgusia, Grade 3, # Subjects: 0
  Dysgusia, Grade 3, %: 0.0%
  Fatigue/weakness, Grade 1 or 2, # Subjects: 4
  Fatigue/weakness, Grade 1 or 2, %: 36.4%
  Fatigue/weakness, Grade 3, # Subjects: 1
  Fatigue/weakness, Grade 3, %: 9.1%
  Flatulence, Grade 1 or 2, # Subjects: 2
  Flatulence, Grade 1 or 2, %: 18.2%
  Flatulence, Grade 3, # Subjects: 0
  Flatulence, Grade 3, %: 0.0%
  Nausea, Grade 1 or 2, # Subjects: 2
  Nausea, Grade 1 or 2, %: 18.2%
  Nausea, Grade 3, # Subjects: 0
  Nausea, Grade 3, %: 0.0%
  Rectal/Anal Burning, Grade 1 or 2, # Subjects: 1
  Rectal/Anal Burning, Grade 1 or 2, %: 9.1%
  Rectal/Anal Burning, Grade 3, # Subjects: 0
  Rectal/Anal Burning, Grade 3, %: 0.0%
  Reflux (also heartburn), Grade 1 or 2, # Subjects: 0
  Reflux (also heartburn), Grade 1 or 2, %: 0.0%
  Reflux (also heartburn), Grade 3, # Subjects: 0
  Reflux (also heartburn), Grade 3, %: 0.0%
  Urine Color Change, Grade 1 or 2, # Subjects: 0
  Urine Color Change, Grade 1 or 2, %: 0.0%
  Urine Color Change, Grade 3, # Subjects: 0
  Urine Color Change, Grade 3, %: 0.0%
  Vomiting, Grade 1 or 2, # Subjects: 1
  Vomiting, Grade 1 or 2, %: 9.1%
  Vomiting, Grade 3, # Subjects: 0
  Vomiting, Grade 3, %: 0.0%
  Weight loss, Grade 1 or 2, # Subjects: 0
  Weight loss, Grade 1 or 2, %: 0.0%
  Weight loss, Grade 3, # Subjects: 0
  Weight loss, Grade 3, %: 0.0%
  Xerostomia, Grade 1 or 2, # Subjects: 2
  Xerostomia, Grade 1 or 2, %: 18.2%
  Xerostomia, Grade 3, # Subjects: 0
  Xerostomia, Grade 3, %: 0.0%
  hypophosphatemia, Grade 1 or 2, # Subjects: 0
  hypophosphatemia, Grade 1 or 2, %: 0.0%
  hypophosphatemia, Grade 3, # Subjects: 0
  hypophosphatemia, Grade 3, %: 0.0%
[2]; 20 mg QD, very high concentration of the drug in urine
  antitumor activity in a kidney with colon cancer lesions: signs of particularly potent antitumor activity
[2]; Patient 0001
  regression of a colon cancer metastatic lesion to kidney: complete regression
[2]; Phase I, tumors refractory to chemotherapies
  disease control (disease stabilization and tumor regression), patients evaluable for tumor response: 65%
[2]; [3]
  Weeks on Study: 76 weeks
  regression: 22%
[2]; Total Daily Dose 80 mg, Head and fleck carcinoma
  Weeks on Study: 17 weeks
[2]; Total Daily Dose 320 mg, Colon adenocarcinoma (two patients)
  Weeks on Study: 24 weeks and 12 weeks
[2]; [4]
  CEA: 50%
  Weeks on Study: 11 weeks
[2]; Total Daily Dose 400 mg, Gastric adenocarcinoma
  Weeks on Study: 19 weeks
[2]; [5]
  CA125: CA125 normalization
  Weeks on Study: 16 weeks
[2]; [6]
  Weeks on Study: 29 weeks
  outcome after surgical resection of remaining hollowed lesion: resected; patient disease free)
[2]; Total Daily Dose 800 mg, Chondrosarocoma
  Weeks on Study: 13 weeks
[2]; Total Daily Dose 1000 mg, Adrenocarticoid carcinoma
  Weeks on Study: 17 weeks
[2]; Total Daily Dose 1000 mg, Colon: adencarcinoma
  Weeks on Study: 16 weeks
[2]; Total Daily Dose 1400 mg, Melanona
  Weeks on Study: 16 weeks
